Measurements from patent US20230352114A1, “METHODS OF PROVIDING MODULATORS OF TAU AGGREGATION” (GTInvent Limited, priority 2020, published 2023).
pEC50: −log10 of the molar value. “Also recorded” adds a separate entry of the source.

What was measured:
dGAE [1] = target: T1, dGAE (Homo sapiens, UniProt P10636); experiment: sandwich ELISA epitope occlusion assay of dGAE aggregates with core region scAbs; format: biochemical; settings: dGAE with DTT, 1:5 ratio, 24 h at 37° C.; total and supernatant samples
T1 construct: Recombinant tau297-391 (dGAE) was produced and purified from; made in house; host or cells: E. coli
T1 sequence (P10636 614-708): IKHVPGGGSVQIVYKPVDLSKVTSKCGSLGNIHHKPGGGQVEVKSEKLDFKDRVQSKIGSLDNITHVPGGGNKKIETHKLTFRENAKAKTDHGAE
Source text: The truncated core repeat domain dGAE (297-391), is the predominant fragment that constitutes bulk of the PHF core in AD (Wischik et al, 1988). During dGAE aggregation in vitro, scAb binding regions on dGAE are ‘hidden’ or ‘occluded’ which leads to a loss of immunoreactivity in aggregation samples. Here we have shown the occlusion of binding regions in aggregated dGAE samples and the recovery of immunoreactivity in the presence of LMTM, a tau-aggregation inhibitor. For preparing the aggregates, 10 μl 10 mM DTT was added to 1000 μl 100 μM dGAE and agitated with/without LMTM (1:5 ratio) at 700 rpm for 24 h at 37° C. Following overnight agitation, one third of each sample was kept aside as ‘total’ and the rest was spun down at 16000×g for 30 min and separated into ‘supernatant’ and ‘pellet’. The pellet was then resuspended in half the original volume for further experiments. The immunoreactivities of core region specific scAbs towards dGAE aggregates formed with/without LMTM was tested using a sandwich ELISA format using a ‘E’ specific monoclonal antibody 423 mAb. […] ELISA plates were coated with 10 μg/ml 423 mAb and blocked as normal. Doubling dilutions of dGAE aggregate ‘total’, ‘supernatant’ and ‘pellet’ samples at 10 μg/ml starting concentration were added to designated wells in doubling dilutions in 1×PBS. dGAE monomer (non-aggregated) was included as assay control. […]

[2] = clinical evidence; fold lower; cited from earlier work
Tau aggregation = experiment: cell-based tau aggregation assay (Rickard et al., 2017); settings: tau aggregation inhibition
Method: Selected or designed compounds may further be synthesised or obtained and tested for their ability to modulate Tau aggregation, for example in a cell-based aggregation assay as described in Rickard et al., 2017.
These compounds were assessed in a cell-based Tau aggregation assay. […] The substituents were designed to test the required strength of hydrogen bonds with the pocket, as well as optimal orientation for hydrophobic and pi interactions.

dGAE [3] = target: T1, dGAE; experiment: protease digestion (Proteinase K / Pronase E) of assembled dGAE, SDS-PAGE; format: biochemical; settings: 100 μM dGAE, 10 mM DTT, ratios up to 1:5, 72 hours
Method: Protease digestion: 100 μM dGAE with 10 mM DTT in phosphate buffer (20 mM, pH 7.4), with or without MTC at ratios up to 1:5 was agitated at 700 rpm, 37° C. for 72 hours. 10 μg aliquots were digested with increasing concentrations of Proteinase K (PK), Pronase E (PE), or left untreated. The digestion was carried out at 37° C. for 1 hour then the reaction was stopped with 1 mM Pefabloc and samples were placed on ice for 5 minutes. Sample buffer without any reducing agent was added, incubated for 5 minutes at room temperature then loaded onto a gel.
Soluble or fibrils of dGAE (100 μM) in reducing conditions (10 mM DTT) were incubated with increasing concentrations of proteinase K or Pronase E then samples were run on SDS-PAGE.

Row | SMILES | immunoreactivity of core region scAbs to dGAE aggregated in presence of the compound (dGAE [1]) | effective dose relative to minimum effective dose of the oxidized MT+ form [2] | pEC50 (Tau aggregation) | formation of protease resistant core of dGAE (dGAE [3])
1 | CN(C)c1ccc2c(c1)Sc1cc(N(C)C)ccc1N2.CS(=O)(=O)O.CS(=O)(=O)O [LMTM, hydromethylthioninium mesylate] | increase in immunoreactivity; also recorded: increased binding | 20 fold |  | 
2 | CN(C)c1ccc2c(c1)Sc1cc(N(C)C)ccc1N2 [LMT, leuco-methylthioninium] | loss of immunoreactivity could be prevented |  | 7.02 | loss of protease resistance; also recorded: prevents the formation of a protease resistant core
